Assays:
KPC and PC3M cells = assay: UPLC–MS/MS measurement of cellular metarrestin concentration; type: cell-based; settings: 1 and 10 µM, within 40 min
PNC in murine KPC tumors = assay: PNC prevalence in KPC tumors (immunofluorescence with α-PTB1 antibodies); type: in vivo, KPC mice; settings: after 14-day treatment with 25 mg/kg by oral gavage; untreated 38.2%
Procedure: Blood samples were collected in K2EDTA tubes and plasma was harvested after centrifugation at 3000 rpm for 10 min. Tissue samples were weighed and flash-frozen for PK and PD mRNA expression analyses, embedded into OCT blocks for PNC determination and processed into FFPE blocks for histopathology assessment. All PK samples were stored at − 80 °C until analysis.
To establish a dose–response relationship between intratumor exposure levels of metarrestin and mechanism of action of the drug in vivo, we first confirmed the ability of metarrestin to suppress PNC structures in murine pancreatic KPC tumors. The prevalence of PNC bodies (expressed as the fraction of cells containing one or more PNCs) was 38.2% in untreated murine KPC tumors (Fig. 4a) which was similar to the PNC prevalence in the previously examined NOD/IL2 gamma (null) PANC1 metastasis model (35.1%) and higher than in cancer cell lines derived from primary pancreatic tumors (average ~ 23.5%). […]
Fig. 4 Intratumor metarrestin exposure correlates with PNC prevalence and mRNA expression levels of transcriptional regulators FOXA1 and FOXO6. a Metarrestin disassembles the peri-nucleolar compartment (PNC) in KPC tumors. […] Relative expression levels of FOXA1 and FOXO6 determined by qRT-PCR and normalized to reference genes. […]

FOXA1 mRNA = FOXA1 mRNA expression in KPC tumors (RNA-seq, qRT-PCR); type: in vivo, KPC mice; settings: vs intratumor exposure
Procedure: Pancreas cancer tissues samples or adjacent, uninvolved normal pancreas from vehicle or metarrestin-treated KPC animals collected at 0, 3, and 9 h after last dose of 25 mg/kg metarrestin were homogenized in PureLink Lysis Buffer (PureLink RNA Mini Kit, ThermoFisher Scientific Waltham, MA) at 4 °C using a TissueLyser II bead mill (Qiagen, Valencia, CA, manufactured by Retsch, Newtown, PA). Total RNA was isolated using the Life Technologies PureLink® RNA Mini Kit, quantified on a NanoDrop 1000 spectrophotometer (ThermoFisher Scientific, Waltham, MA). […]
Total RNA libraries were prepared using the Illumina TruSeq® Stranded Total RNA LT (with Ribo-Zero™Human/Mouse/Rat) kit according the manufacturer’s instructions. […] Sequencing output ranged from 89 to 132 million reads per sample. Adapter trimming and base filtering was done using Trimmomatic software version 0.3, and the trimmed reads were aligned to mouse reference genome (GRCm38/mm10) and Ensembl annotation (version 70) using TopHat2 version 2.0.8.
A total of 450 ng of total RNA was used for single-strand complementary DNA synthesis using a SuperScript III First-Strand kit (Invitrogen, Carlsbad, CA). […] Reaction products were read in a Bio-Rad CFX96 Touch real-time PCR detection system (Bio-Rad Laboratories, Hercules, CA). […]

N=c1c2c(-c3ccccc3)c(-c3ccccc3)n(Cc3ccccc3)c2ncn1[C@H]1CC[C@H](O)CC1 [metarrestin, Trans-4-(7-benzyl-4-imino-5,6-diphenyl-4,7-dihydro-3H-pyrrolo[2,3-d]pyrimidin-3-yl) cyclohexanol]
cellular levels, % of media concentrations (KPC and PC3M cells): 40–100%
PNC prevalence in KPC tumors (PNC in murine KPC tumors): 9.8%
FOXA1 mRNA expression in KPC tumors (FOXA1 mRNA): Dose-dependent normalization

— PMC6267684, “Pharmacokinetic evaluation of the PNC disassembler metarrestin in wild-type and Pdx1-Cre;LSL-Kras^G12D/+;Tp53^R172H/+ (KPC) mice, a genetically engineered model of pancreatic cancer” (Cancer Chemotherapy and Pharmacology, 2018)
